The values that follow are results of earlier work, collected in patent publication US10143639B2, “Use of adelmidrol and other topical or oral cannabinomimetic or aliamide mast cell inhibitors to treat dermatoheliosis, seborrheic keratoses, and androgenetic alopecia” (priority 2017, dated 2018).

The test system of series [1] is AGA patients. The following applies: share of treated AGA patients improving.
Series [2] concerns AGA scalp. The note with it: topical application, especially in subjects already taking finasteride.
The test system of series [3] is NGF.
In series [4] the test system is hair growth in mice. The note with it: applied to the skin of mice.

Consider `CC(C)(C)NC(=O)[C@H]1CC[C@H]2[C@@H]3CC[C@H]4NC(=O)C=C[C@]4(C)[C@H]3CC[C@]12C` [finasteride], for which the “clinical improvement in treated AGA patients” value in series [1] is listed as 50-60%.

Take `CCCCC/C=C\C/C=C\CCCCCCCC(=O)O` [linoleic acid]: the hair growth result in series [2] is “improved hair growth”.

`CCCCCCCCCCCCCCCC(=O)NCCO` [PEA, palmitoylethanolamide]: in series [3], the “pro-inflammatory effects of NGF” value is given as “turned off the pro-inflammatory effects of NGF”.

Turning to `CCCCC[C@H](O)/C=C/[C@H]1C(=O)C[C@H](O)[C@@H]1C/C=C\CCCC(=O)O` [PGD2, Prostaglandin D2], the hair growth result in series [4] was “stopped hair growth”.
